Results taken from the NIST ThermoML archive (doi:10.1016/j.jct.2016.07.008).
Numbers after ± are expanded uncertainties.

Test: xn = mol fraction of the nth substance listed
Conditions: Liquid, Vibrating wire viscometry

With `Cc1ccc(C)c(C)c1` [1,2,4-trimethylbenzene] + CCCCO the viscosity (293.15 K, 100 kPa, x2 = 0.2999) was 1.004 ± 0.018 mPa·s, the viscosity (293.15 K, 100 kPa, x2 = 0.5289) was 1.227 ± 0.021 mPa·s and the viscosity (293.15 K, 100 kPa, x2 = 0.7991) was 1.959 ± 0.032 mPa·s. It also gave a viscosity (293.15 K, 1000 kPa, x2 = 0.2999) of 1.019 ± 0.019 mPa·s, a viscosity (293.15 K, 1000 kPa, x2 = 0.5289) of 1.228 ± 0.021 mPa·s and a viscosity (293.15 K, 1000 kPa, x2 = 0.7991) of 1.977 ± 0.032 mPa·s. The viscosity (293.15 K, 5000 kPa, x2 = 0.2999) was 1.066 ± 0.019 mPa·s, the viscosity (293.15 K, 5000 kPa, x2 = 0.5289) was 1.29 ± 0.022 mPa·s and the viscosity (293.15 K, 5000 kPa, x2 = 0.7991) was 2.057 ± 0.034 mPa·s. The viscosity (293.15 K, 10000 kPa, x2 = 0.2999) was 1.104 ± 0.02 mPa·s, the viscosity (293.15 K, 10000 kPa, x2 = 0.5289) was 1.348 ± 0.023 mPa·s and the viscosity (293.15 K, 10000 kPa, x2 = 0.7991) was 2.177 ± 0.036 mPa·s. For the same compound, the viscosity (293.15 K, 20000 kPa, x2 = 0.2999) was 1.197 ± 0.022 mPa·s, the viscosity (293.15 K, 20000 kPa, x2 = 0.5289) was 1.462 ± 0.025 mPa·s and the viscosity (293.15 K, 20000 kPa, x2 = 0.7991) was 2.381 ± 0.039 mPa·s. It also gave a viscosity (293.15 K, 30000 kPa, x2 = 0.2999) of 1.292 ± 0.023 mPa·s, a viscosity (293.15 K, 30000 kPa, x2 = 0.5289) of 1.588 ± 0.027 mPa·s and a viscosity (293.15 K, 30000 kPa, x2 = 0.7991) of 2.563 ± 0.042 mPa·s. It also gave a viscosity (293.15 K, 40000 kPa, x2 = 0.2999) of 1.391 ± 0.025 mPa·s, a viscosity (293.15 K, 40000 kPa, x2 = 0.5289) of 1.73 ± 0.03 mPa·s and a viscosity (293.15 K, 40000 kPa, x2 = 0.7991) of 2.757 ± 0.045 mPa·s. For the same compound, the viscosity (293.15 K, 50000 kPa, x2 = 0.2999) was 1.516 ± 0.027 mPa·s, the viscosity (293.15 K, 50000 kPa, x2 = 0.5289) was 1.87 ± 0.032 mPa·s and the viscosity (293.15 K, 50000 kPa, x2 = 0.7991) was 2.995 ± 0.049 mPa·s. The viscosity (293.15 K, 60000 kPa, x2 = 0.2999) was 1.65 ± 0.029 mPa·s, the viscosity (293.15 K, 60000 kPa, x2 = 0.5289) was 2.031 ± 0.035 mPa·s and the viscosity (293.15 K, 60000 kPa, x2 = 0.7991) was 3.241 ± 0.053 mPa·s. For the same compound, the viscosity (293.15 K, 70000 kPa, x2 = 0.2999) was 1.804 ± 0.032 mPa·s, the viscosity (293.15 K, 70000 kPa, x2 = 0.5289) was 2.196 ± 0.037 mPa·s and the viscosity (293.15 K, 70000 kPa, x2 = 0.7991) was 3.481 ± 0.056 mPa·s. It also gave a viscosity (293.15 K, 80000 kPa, x2 = 0.2999) of 1.938 ± 0.034 mPa·s, a viscosity (293.15 K, 80000 kPa, x2 = 0.5289) of 2.401 ± 0.041 mPa·s and a viscosity (293.15 K, 80000 kPa, x2 = 0.7991) of 3.754 ± 0.061 mPa·s. For the same compound, the viscosity (293.15 K, 100000 kPa, x2 = 0.2999) was 2.236 ± 0.04 mPa·s, the viscosity (293.15 K, 100000 kPa, x2 = 0.5289) was 2.773 ± 0.047 mPa·s and the viscosity (293.15 K, 100000 kPa, x2 = 0.7991) was 4.289 ± 0.069 mPa·s. It also gave a viscosity (293.15 K, 120000 kPa, x2 = 0.2999) of 2.578 ± 0.045 mPa·s, a viscosity (293.15 K, 120000 kPa, x2 = 0.5289) of 3.261 ± 0.055 mPa·s and a viscosity (293.15 K, 120000 kPa, x2 = 0.7991) of 4.849 ± 0.078 mPa·s. The viscosity (293.15 K, 140000 kPa, x2 = 0.2999) was 2.956 ± 0.052 mPa·s, the viscosity (293.15 K, 140000 kPa, x2 = 0.5289) was 3.719 ± 0.062 mPa·s and the viscosity (293.15 K, 140000 kPa, x2 = 0.7991) was 5.47 ± 0.088 mPa·s. It also gave a viscosity (313.15 K, 100 kPa, x2 = 0.2999) of 0.7478 ± 0.014 mPa·s, a viscosity (313.15 K, 100 kPa, x2 = 0.5289) of 0.8685 ± 0.015 mPa·s and a viscosity (313.15 K, 100 kPa, x2 = 0.7991) of 1.254 ± 0.021 mPa·s. It also gave a viscosity (313.15 K, 1000 kPa, x2 = 0.2999) of 0.7546 ± 0.014 mPa·s, a viscosity (313.15 K, 1000 kPa, x2 = 0.5289) of 0.8775 ± 0.016 mPa·s and a viscosity (313.15 K, 1000 kPa, x2 = 0.7991) of 1.271 ± 0.021 mPa·s. It also gave a viscosity (313.15 K, 5000 kPa, x2 = 0.2999) of 0.7792 ± 0.015 mPa·s, a viscosity (313.15 K, 5000 kPa, x2 = 0.5289) of 0.9012 ± 0.016 mPa·s and a viscosity (313.15 K, 5000 kPa, x2 = 0.7991) of 1.332 ± 0.022 mPa·s. The viscosity (313.15 K, 10000 kPa, x2 = 0.2999) was 0.8286 ± 0.015 mPa·s, the viscosity (313.15 K, 10000 kPa, x2 = 0.5289) was 0.9526 ± 0.017 mPa·s and the viscosity (313.15 K, 10000 kPa, x2 = 0.7991) was 1.385 ± 0.023 mPa·s. The viscosity (313.15 K, 20000 kPa, x2 = 0.2999) was 0.8853 ± 0.016 mPa·s, the viscosity (313.15 K, 20000 kPa, x2 = 0.5289) was 1.029 ± 0.018 mPa·s and the viscosity (313.15 K, 20000 kPa, x2 = 0.7991) was 1.506 ± 0.025 mPa·s. It also gave a viscosity (313.15 K, 30000 kPa, x2 = 0.2999) of 0.9596 ± 0.018 mPa·s, a viscosity (313.15 K, 30000 kPa, x2 = 0.5289) of 1.116 ± 0.019 mPa·s and a viscosity (313.15 K, 30000 kPa, x2 = 0.7991) of 1.645 ± 0.027 mPa·s. It also gave a viscosity (313.15 K, 40000 kPa, x2 = 0.2999) of 1.025 ± 0.019 mPa·s, a viscosity (313.15 K, 40000 kPa, x2 = 0.5289) of 1.201 ± 0.021 mPa·s and a viscosity (313.15 K, 40000 kPa, x2 = 0.7991) of 1.759 ± 0.029 mPa·s. The viscosity (313.15 K, 50000 kPa, x2 = 0.2999) was 1.105 ± 0.02 mPa·s, the viscosity (313.15 K, 50000 kPa, x2 = 0.5289) was 1.293 ± 0.022 mPa·s and the viscosity (313.15 K, 50000 kPa, x2 = 0.7991) was 1.921 ± 0.032 mPa·s. It also gave a viscosity (313.15 K, 60000 kPa, x2 = 0.2999) of 1.181 ± 0.021 mPa·s, a viscosity (313.15 K, 60000 kPa, x2 = 0.5289) of 1.402 ± 0.024 mPa·s and a viscosity (313.15 K, 60000 kPa, x2 = 0.7991) of 2.046 ± 0.034 mPa·s. For the same compound, the viscosity (313.15 K, 70000 kPa, x2 = 0.2999) was 1.271 ± 0.023 mPa·s, the viscosity (313.15 K, 70000 kPa, x2 = 0.5289) was 1.492 ± 0.026 mPa·s and the viscosity (313.15 K, 70000 kPa, x2 = 0.7991) was 2.187 ± 0.036 mPa·s. For the same compound, the viscosity (313.15 K, 80000 kPa, x2 = 0.2999) was 1.357 ± 0.024 mPa·s, the viscosity (313.15 K, 80000 kPa, x2 = 0.5289) was 1.612 ± 0.028 mPa·s and the viscosity (313.15 K, 80000 kPa, x2 = 0.7991) was 2.342 ± 0.038 mPa·s. For the same compound, the viscosity (313.15 K, 100000 kPa, x2 = 0.2999) was 1.531 ± 0.027 mPa·s, the viscosity (313.15 K, 100000 kPa, x2 = 0.5289) was 1.821 ± 0.031 mPa·s and the viscosity (313.15 K, 100000 kPa, x2 = 0.7991) was 2.65 ± 0.043 mPa·s. It also gave a viscosity (313.15 K, 120000 kPa, x2 = 0.2999) of 1.753 ± 0.031 mPa·s, a viscosity (313.15 K, 120000 kPa, x2 = 0.5289) of 2.065 ± 0.035 mPa·s and a viscosity (313.15 K, 120000 kPa, x2 = 0.7991) of 2.995 ± 0.049 mPa·s. For the same compound, the viscosity (313.15 K, 140000 kPa, x2 = 0.2999) was 1.969 ± 0.035 mPa·s, the viscosity (313.15 K, 140000 kPa, x2 = 0.5289) was 2.367 ± 0.04 mPa·s and the viscosity (313.15 K, 140000 kPa, x2 = 0.7991) was 3.336 ± 0.054 mPa·s.
